{"source": "patent US20020165149A1", "about": "“Mutated class II major histocompatibility proteins” (priority 2000, published 2002)", "key": {"I-A^g7": {"test_system": "I-A^g7", "sequence (as listed by the source)": "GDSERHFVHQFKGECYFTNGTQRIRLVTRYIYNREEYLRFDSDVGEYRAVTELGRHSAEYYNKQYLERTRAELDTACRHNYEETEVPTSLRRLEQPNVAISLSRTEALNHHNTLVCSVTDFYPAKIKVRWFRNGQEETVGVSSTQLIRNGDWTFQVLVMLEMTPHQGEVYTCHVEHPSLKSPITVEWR", "sequence (P04228 24-256)": "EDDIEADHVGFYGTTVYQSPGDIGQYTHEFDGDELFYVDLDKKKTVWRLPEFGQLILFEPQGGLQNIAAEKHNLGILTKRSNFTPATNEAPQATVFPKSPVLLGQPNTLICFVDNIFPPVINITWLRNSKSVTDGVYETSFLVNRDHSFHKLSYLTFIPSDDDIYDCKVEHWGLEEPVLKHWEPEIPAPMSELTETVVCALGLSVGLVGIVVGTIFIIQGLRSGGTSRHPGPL", "test": "Direct binding of biotinylated peptide to L-cells transfected with I-A^g7 (flow cytometry)", "parameters": "species or system murine", "conditions": "3 hours at 37° C., pH 6; streptavidin-PE detection"}, "I-A^g7-negative L-cells": {"test_system": "I-A^g7-negative L-cells", "conditions": "peptide 1.6 μM-50 μM, 3 hours at 37° C., pH 6", "experimental": "FIG. 13 is a binding curve showing I-A^g7-positive L-cell binding to titrated amounts of B-1040-63 peptide (1.6 μM-50 μM)."}}, "note": "Like-named read-outs stand apart in the source and are kept apart here. No end group written: not given here. *: point of attachment. Biotin = O=C1N[C@H]2[C@H](CS[C@H]2CCCCC(=O)*)N1"}
{"substance": "Biotin-RTRPLWVRME [Mut B-1040-63]", "values": [{"measurement": "binding to L cells transfected with IA^g7", "setting": "I-A^g7", "result": "bind specifically"}, {"measurement": "binding to untransfected (I-A^g7-negative) L cells", "setting": "I-A^g7-negative L-cells", "result": "does not bind"}, {"measurement": "binding to untransfected (I-A^g7-negative) L cells", "setting": "I-A^g7-negative L-cells; listed as B-104-63", "result": "does not occur"}]}
